In US6638762B1, “Tissue-vectors specific replication and gene expression” (priority 1994, dated 2003):

Assays:
Av5E1aTK01i [1] = experiment: GCV inhibition of vector replication in vitro, viral titer by TCID50 on 293 cells; type: cell-based; conditions: A549 cells transduced with Av5E1aTK01i; 10 μM GCV for 5 days; repeated three times
Experimental: (§1) FIG. 6. GCV Inhibition of Av5E1aTk01i Replication In Vitro. A549 cells were transduced with either Add1327 or Add1327Tk01i. Cells were then treated with 10 uM GCV for 5 days. Following the 5 day incubation, cells were harvested, washed in HBSS, and then freeze/thawed to prepare a crude viral lysate. Titers were then performed by standard TCID50 assays on 293 cells to determine viral titer. The experiment was repeated three times.
(§2) HSV-TK was placed into the E3 region of Add1327 to form Av5E1aTK01i. A549 cells were transduced with either Add1327 or Av5E1aTK01i. Cells were then treated with 10 μM GCV for 5 days. Following the 5 day incubation cells were harvested, washed in HBSS, and then freeze/thawed to prepare a crude viral lysate. Titers were then performed by standard TCID^50 assays on 293 cells to determine viral titer. The experiment was repeated three times.

Add1327 = experiment: as above; type: cell-based; conditions: A549 cells transduced with Add1327; 10 μM GCV for 5 days; repeated three times
Experimental: as §1, §2

Av5E1aTK01i [2] = experiment: GCV inhibition of Av5E1aTk01i replication in vivo, immunohistochemistry of subcutaneous A549 tumors; design: species or system nude mice; conditions: A549 tumors injected with 1×10^9 pfu Av5E1aTK01i; IP GCV 75 mg/kg once a day for 5 days
Experimental: (§3) FIG. 7. GCV Inhibition of Av5E1aTk01i Replication In Vivo. Subcutaneous tumors were formed by injecting 1×10^7 A549 cells into the subcutaneous space of the right flank of nude mice. After tumors formed 1×10^9 pfu of Add1327Tk01i was injected into several animals containing tumors. After 5 days, half of the animals received 5 days of IP GCV treatment at 75 mg/kg once a day. At the end of this time frame all animals were sacrificed. Immunohistochemistry was performed on all samples for HSV-TK expression and hexon expression, the latter which is only expressed when the vector is replicating.
as §3, with “Subcutaneous” for “FIG. 7. GCV Inhibition of Av5E1aTk01i Replication In Vivo. Subcutaneous”, “tumors formed,” for “tumors formed”, “of Av5E1aTK01i” for “of Add1327Tk01i”, “5 days” for “5 days,”, “half” for “half of”

`Nc1nc(O)c2ncn(COC(CO)CO)c2n1` [GCV, ganciclovir] was tested, and the “drop in titer of a vector carrying the HSV-TK gene” value (Av5E1aTK01i [1]) was “greater than 4 order of magnitude”, the “effect on viral titer of an adenovirus not carrying the HSV-TK gene” value (Add1327) was “no effect” and the “hexon expression (only expressed when the vector is replicating), immunohistochemistry” value (Av5E1aTK01i [2]) was “severely diminished”.
